Data: PMC11206246, “Cyclosporin A-Based PROTACs Can Deplete Abundant Cellular Cyclophilin A without Suppressing T Cell Activation” (Molecules, 2024)
Where a SMILES comes first, the peptide text is derived from it. The star is where a group is joined. Cbz = O=C(OCc1ccccc1)*

Key:
CypA [1] = molecular target: T1, CypA (Homo sapiens, UniProt P62937); details: cited from earlier work
CypA [2] = molecular target: T1, CypA; assay: Degradation of endogenous CypA in HeLa cells (western blot); type: cell-based; design: The degradation of endogenous CypA in HeLa cells was investigated; endogenous in cells; host or cells: HeLa; details: 1 μM epoxomicin, 3 μM MG-132, 1 μM CsA, 10 μM VHL ligand
Protocol: (§1) HeLa cells and primary human dermal fibroblasts isolated from neonatal foreskin (HDFn) were adherent cells and were cultured in commercially available, ready-to-use DMEM ([…], Gibco, Waltham, MA, USA) supplemented with 10% (v/v) FBS (Fetal Bovine Serum, Sigma-Aldrich) and antibiotics (Streptomycin/Penicillin, 1:1000 dilution) in polystyrene culture flasks. Growth conditions for all cell lines were maintained in a humidified chamber at 37 °C and 5% CO2. For subculturing or prior counting, the cells were treated with trypsin-EDTA (Life Technologies GmbH, Carlsbad, CA, USA) to detach them from the surface.
(§2) A total of 5 × 10^5 HeLa cells or HDFn was plated in 6-well plates the day before treatment. […] An amount of 200 μL PROTAC dilutions (0.1 μM and 1.0 μM) in DMSO (final concentration 0.1% (v/v)) were added to the culture medium and incubated at 37.0 °C and 5.0% CO2 for the desired time. As a blank, the cells were incubated with 200 μL DMSO under the same conditions. After the appropriate incubation time, the medium was aspirated, and the cells were washed twice with 1× PBS.
(§3) Cells were lysed in ice-cold 1× Laemmli buffer (100 mM DTT) after two washes with 1× PBS. After denaturation (95 °C for 5 min) and shearing of the DNA by sonication, the samples were loaded on Tricine-SDS-PAGE, electrophoresed, and blotted onto a PVDF membrane. After staining with S-Ponceau staining solution and blocking, the membranes were incubated overnight at 4 °C in primary rabbit anti-CypA antibody (Cell Signaling Technology #2175S, Danvers, MA, USA) and for 1 h at room temperature with secondary antibody (IRDye® 800 CW Goat anti-Rabbit IgG Secondary Antibody, LI-COR). All membranes were then reprobed with rabbit anti-beta actin (Cell Signaling Technology #4967) to ensure equal protein loading. The intensities of the bands on western blot films were quantified using the LI-COR Odyssey Imaging System and the software Image Studio Lite (version 3.1). The CypA values were normalized to β-actin, and DMSO was arbitrarily assigned a value of 100% for comparison purposes.

CypA [3] = molecular target: T1, CypA; assay: Degradation of CypA in HDFn fibroblasts (western blot); type: cell-based; design: endogenous in cells; host or cells: primary PBMCs from healthy donors; details: 1 μM epoxomicin, 3 μM MG-132, 1 μM CsA, 10 μM VHL ligand
Protocol: as §1, §2, §3

T1 sequence (P62937 whole entry): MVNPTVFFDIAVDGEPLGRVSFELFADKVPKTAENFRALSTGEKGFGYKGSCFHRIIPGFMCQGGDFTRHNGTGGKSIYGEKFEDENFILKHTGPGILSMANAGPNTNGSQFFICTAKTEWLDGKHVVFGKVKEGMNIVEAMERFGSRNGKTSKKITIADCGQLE

Row | Compound | CypA inhibitor potency (CypA [1]) | effect of 1 h pre-treatment with the substance on CypA degradation by P3 or P5 (CypA [2]) | effect of 1 h pre-treatment with the substance on CypA degradation by P3 or P5 (CypA [3])
1 | C/C=C/C[C@@H](C)[C@@H](O)[C@H]1C(=O)N[C@@H](CC)C(=O)N(C)[C@H](C)C(=O)N(CC)[C@@H](C(C)C)C(=O)N[C@@H](C(C)C)C(=O)N(C)[C@@H](CC(C)C)C(=O)N[C@@H](C)C(=O)N[C@H](C)C(=O)N(C)[C@@H](CC(C)C)C(=O)N(C)[C@@H](CC(C)C)C(=O)N(C)[C@@H](C(C)C)C(=O)N1C [Alisporivir] | low nM |  | 
2 | CC[C@H](C)[C@H](NC(=O)[C@H]([C@@H](C)CC)N(C)C(C)=O)C(=O)N[C@H](C(=O)N[C@@H](CC(C)C)C(=O)[C@@]1(C)CO1)[C@@H](C)O [Ep, epoxomicin] |  | suppressed | suppressed
3 | CC(C)C[C@@H](C=O)NC(=O)[C@H](CC(C)C)NC(=O)[C@H](CC(C)C)NC(=O)OCc1ccccc1 [MG-132] (Cbz-Leu-Leu-Leu-aldehyde) |  | suppressed | suppressed
4 | Cc1ncsc1-c1ccc(CNC(=O)[C@@H]2C[C@@H](O)CN2C(=O)[C@@H](N)C(C)(C)C)cc1 [VHL ligand 1] |  | recovery of CypA band | recovery of CypA band
